Holding throughout (assay type): biochemical
The target of one experiment is T1, G6sec1 (Homo sapiens, UniProt Q9BYG0).
T1 construct: made in house; host or cells: Sf21 insect cells infected with pVL1393-F2G6sec1-derived recombinant baculovirus
T1 sequence (Q9BYG0 36-378): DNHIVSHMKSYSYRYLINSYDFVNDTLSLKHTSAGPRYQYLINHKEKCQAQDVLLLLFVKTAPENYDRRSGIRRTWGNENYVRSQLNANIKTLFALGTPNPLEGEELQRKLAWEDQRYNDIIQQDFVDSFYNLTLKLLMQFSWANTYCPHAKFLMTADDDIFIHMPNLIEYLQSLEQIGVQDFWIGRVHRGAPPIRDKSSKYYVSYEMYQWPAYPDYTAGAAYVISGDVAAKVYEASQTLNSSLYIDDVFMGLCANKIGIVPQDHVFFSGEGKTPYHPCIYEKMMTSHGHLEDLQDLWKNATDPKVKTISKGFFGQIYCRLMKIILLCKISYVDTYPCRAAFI
Kind of experiment: β1,3-N-acetylglucosaminyltransferase activity of purified FLAG peptide-fused G6 polypeptide, 2-aminobenzamide-labeled oligosaccharide substrates. To be noted: 2-aminobenzamide-labeled oligosaccharides; LNnT defined as 100%. As for the experimental part:
(§1) β1,3-N-Acetylglucosaminyltransferase activity of the FLAG peptide-fused G6 polypeptide secreted and produced in insect cells was measured by using the eluate prepared in Example 8(6). The method of Example 7 was used for the activity measurement.
(§2) As substrates, oligosaccharides [LNnT, Galβ1-4GlcNAcβ1-3Galβ1-4GlcNAc (hereinafter referred to as “2LN”), Galβ1-4GlcNAcβ1-3Galβ1-4GlcNAcβ1-3Galβ1-4GlcNAc (hereinafter referred to as “3LN”), Galβ1-4GlcNAcβ1-3Galβ1-4GlcNAcβ1-3Galβ1-4GlcNAcβ1-3Galβ1-4GlcNAc (hereinafter referred to as “4LN”), Galβ1-4GlcNAcβ1-3Galβ1-4GlcNAcβ-3Galβ1-4GlcNAcβ1-3Galβ1-4GlcNAcβ1-3Galβ1-4GlcNAc (hereinafter referred to as “5LN”), or Galβ1-4(SO3-6)GlcNAcβ1-3Galβ1-4(SO3-6)GlcNAc (hereinafter referred to as “L2L2”)] were labeled with 2-aminobenzamide and used. 2-Aminobenzamide-labeling of oligosaccharides was carried out using SIGMA 2AB glycan labeling kit (manufactured by Oxford Glycoscience) according to the manufacture's instructions of the kit. LNnT was purchased from Oxford Glycosystems. Other oligosaccharides were obtained from Seikagaku Corporation.
Specifically, the reaction was carried out at 37° C. for 16 hours in 20 μl of an assay solution [150 mmol/l sodium cacodylate (pH 7.2), 50 mmol/l UDP-GlcNAc (manufactured by SIGMA), 0.4% Triton CF-54, 10 mmol/l MnCl2, 5 μmol/12-aminobenzamide-labeled sugar chain substrate, the above purified enzyme solution], and then the product was detected by high performance liquid chromatography (HPLC, details will be described below). […]
(§3) The assay solution after completion of the reaction was treated at 100° C. for 5 minutes and then mixed with 50 μl of pure water for HPLC and centrifuged at 10,000×g for 5 minutes to obtain the supernatant. To a tube containing the assay solution, 50 μl of pure water for HPLC was added again, the tube was washed, and suparnatant was obtained by centrifugation at 10,000×g for 5 minutes and was combined with the first supernatant. Next, the supernatant was passed through Ultrafree-MC column (manufactured by Millipore) and a portion thereof (10 μl) was subjected to HPLC. The Ultrafree-MC column was used according to the method described in the manufacture's instructions attached thereto.
(§4) The HPLC was carried out using TSK-gel ODS-80Ts Column (4.6×300 mm; manufactured by TOSOH) as a column and 0.02 mol/l ammonium acetate buffer containing 7% methanol (pH 4.0) as an eluant at an elution temperature of 50° C. and a flow rate of 1 ml/min.
(§5) The product was detected using a fluorescence spectrophotometer FP-920 (manufactured by JASCO Corporation) (excitation wavelength: 330 nm, radiation wavelength: 420 nm).

Experiment [1] has as its target T2, G6sec2 (Homo sapiens, UniProt Q9BYG0).
T2 construct: made in house; host or cells: Sf21 insect cells infected with pVL1393-F2G6sec2-derived recombinant baculovirus
T2 sequence (Q9BYG0 39-378): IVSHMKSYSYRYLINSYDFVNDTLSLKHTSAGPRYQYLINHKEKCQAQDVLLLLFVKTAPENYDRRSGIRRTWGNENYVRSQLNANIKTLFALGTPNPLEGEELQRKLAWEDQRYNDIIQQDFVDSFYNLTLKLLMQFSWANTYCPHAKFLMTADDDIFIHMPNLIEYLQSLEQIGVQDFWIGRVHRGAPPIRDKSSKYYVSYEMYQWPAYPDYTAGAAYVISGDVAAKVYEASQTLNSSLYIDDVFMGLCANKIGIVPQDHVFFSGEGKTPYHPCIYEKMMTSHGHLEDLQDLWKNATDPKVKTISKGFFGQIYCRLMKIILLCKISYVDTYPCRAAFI
The experiment is described as above. The note with it: 2-aminobenzamide-labeled oligosaccharides, LNnT defined as 100%; for Relative activity (%) Test 2 G6sec2: enzyme prepared again. As for the experimental part:
as §1, §2
Specifically, the reaction was carried out at 37° C. for 16 hours in 20 μl of an assay solution [150 mmol/l sodium cacodylate (pH 7.2), 50 mmol/l UDP-GlcNAc (manufactured by SIGMA), 0.4% Triton CF-54, 10 mmol/l MnCl2, 5 μmol/12-aminobenzamide-labeled sugar chain substrate, the above purified enzyme solution], and then the product was detected by high performance liquid chromatography (HPLC, details will be described below). As the enzyme, an eluate (1.5 μl) prepared from a culture supernatant of Sf21 infected with the recombinant virus derived from pVL1393-F2G6sec1 or an eluate (1.4 μl) prepared from a culture supernatant of Sf21 infected with the recombinant virus derived from pVL1393-F2G6sec2, prepared in Example 8(6), was used.
as §3, §4, §5
Also, a purified enzyme (G6sec2) was again prepared using the method shown in Example 8(6), its substrate specificity was again examined, and the results are also shown in Table 1 (Test 2 in Table 1). The purified enzyme (280 μl) was prepared from 30 ml of a culture supernatant of Sf21 infected with the recombinant virus derived from pVL1393-F2G6sec2, and the assay was carried out using a 4 μl portion thereof. Relative activities when the activity measured using 2-aminobenzamide-labeled LNnT as the substrate is defined as 100% are shown in the table.

Experiment [2] has as its target T2, G6sec2. The experiment is described as follows: β1,3-N-acetylglucosaminyltransferase activity using pyridylaminated oligosaccharides as substrates. To be noted: pyridylaminated oligosaccharides 50 μmol/l, 37° C., 14.5 hours, LNnT defined as 100%. As for the experimental part:
After carrying out the reaction at 37° C. for 14.5 hours in 30 μl of an assay solution [150 mmol/l sodium cacodylate (pH 7.2), 50 mmol/l UDP-GlcNAc (manufactured by SIGMA), 0.4% Triton CF-54, 10 mmol/l MnCl2, 50 μmol/l pyridylaminated sugar chain substrate, a purified enzyme solution (G6sec2)], the product was detected by HPLC. The purified enzyme (G6sec2) was obtained according to the method shown in Example 8(6). The purified enzyme (280 μl) was prepared from 30 ml of a culture supernatant of Sf21 infected with the recombinant virus derived from pVL1393-F2G6sec2, and the assay was carried out using 5 μl thereof. As substrates, LnNT, lacto-N-tetraose (Galβ1-3GlcNAcβ1-3Galβ1-4Glc (hereinafter referred to as “LNT”), lacto-N-fucopentaose II (Galβ1-3(Fucα1-4)GlcNAcβ1-3Galβ1-4Glc; hereinafter referred to as “LNFP-II”), lacto-N-fucopentaose III (Galβ1-4(Fucα1-3)GlcNAcβ1-3Galβ1-4Glc; hereinafter referred to as “LNFP-III”), lacto-N-fucopentaose V (Galβ1-3GlcNAcβ1-3Galβ1-4(Fucα1-3)Glc; hereinafter referred to as “LNFP-V”), and lacto-N-difucohexaose II (Galβ1-3(Fucα1-4)GlcNAcβ1-3Galβ1-4(Fucα1-3)Glc; hereinafter referred to as “LNDFH-II”) (all manufactured by Oxford Glycosystems) were fluorescently-labeled with aminopyridine and used. The substrates were fluorescently-labeled according to a conventional method [Agric. Biol. Chem., 54, 2169 (1990)].
After carrying out the reaction on each substrate using an assay solution containing UDP-GlcNAc (saccharide donor) and an assay solution containing no donor and subsequently analyzing by HPLC, peaks appeared only in the assay solution containing UDP-GlcNAc was defined as products.
The assay solution after completion of the reaction was treated at 100° C. for 5 minutes and then centrifuged at 10,000×g for 5 minutes to obtain a supernatant, and a part thereof (5 μl) was subjected to HPLC.
The HPLC was carried out using TSK-gel ODS-80Ts Column (4.6×300 mm; manufactured by TOSOH) and 0.02 mol/l ammonium acetate buffer (pH 4.0) as the eluant at an elution temperature of 50° C. and a flow rate of 0.5 ml/min.
Detection and determination of products were carried out using a fluorescence spectrophotometer FP-920 (manufactured by JASCO Corporation) (excitation wavelength: 320 nm, radiation wavelength: 400 nm).

The text below walks through data of patent publication US7629150B2, “Transformed cell harboring DNA or RNA encoding sugar chain synthesizing agent having β1,3-N-acetylglucosaminyltransferase activity” (Kyowa Hakko Kirin Co., Ltd., priority 2000, dated 2009).

Where only a bound is given, the exact number is not on record here.

As for `CC(=O)N[C@H]1[C@H](O[C@H]2[C@@H](O)[C@@H](CO)O[C@@H](O[C@H]3[C@H](O)[C@@H](NC(C)=O)[C@H](O[C@H]4[C@@H](O)[C@@H](CO)O[C@@H](O[C@H]5[C@H](O)[C@@H](NC(C)=O)C(O)O[C@@H]5CO)[C@@H]4O)O[C@@H]3CO)[C@@H]2O)O[C@H](CO)[C@@H](O[C@@H]2O[C@H](CO)[C@H](O)[C@H](O)[C@H]2O)[C@@H]1O` (stereo partly drawn) [3LN, Galβ1-4GlcNAcβ1-3Galβ1-4GlcNAcβ1-3Galβ1-4GlcNAc], the “Relative activity (%) Test 1 G6sec1” value on G6sec1 came to 92.9%. Further, on G6sec2 [1], the “Relative activity (%) Test 1 G6sec2” value is listed as 95.8% and the “Relative activity (%) Test 2 G6sec2” value came to 79.2%. `CC(=O)N[C@H]1[C@H](O[C@H]2[C@@H](O)[C@@H](CO)O[C@@H](O[C@@H]([C@H](O[C@@H]3O[C@@H](C)[C@@H](O)[C@@H](O)[C@@H]3O)[C@@H](O)C=O)[C@H](O)CO)[C@@H]2O)O[C@H](CO)[C@@H](O[C@@H]2O[C@@H](C)[C@@H](O)[C@@H](O)[C@@H]2O)[C@@H]1O[C@@H]1O[C@H](CO)[C@H](O)[C@H](O)[C@H]1O` [LNDFH-II, lacto-N-difucohexaose II]: the “Relative activity (%)” value at G6sec2 [2] is reported as <0.05%. The same measure, in the same setting: to `CC(=O)N[C@H]1[C@H](O[C@H]2[C@@H](O)[C@@H](CO)O[C@@H](O[C@@H]([C@H](O)[C@@H](O)C=O)[C@H](O)CO)[C@@H]2O)O[C@H](CO)[C@@H](O[C@@H]2O[C@@H](C)[C@@H](O)[C@@H](O)[C@@H]2O)[C@@H]1O[C@@H]1O[C@H](CO)[C@H](O)[C@H](O)[C@H]1O` [LNFP-II, lacto-N-fucopentaose II] belongs <0.05%; to `CC(=O)N[C@H]1[C@H](O[C@H]2[C@@H](O)[C@@H](CO)O[C@@H](O[C@H]3[C@H](O)[C@@H](O)C(O)O[C@@H]3CO)[C@@H]2O)O[C@H](CO)[C@@H](O)[C@@H]1O[C@@H]1O[C@H](CO)[C@H](O)[C@H](O)[C@H]1O` (stereo partly drawn) [LNT, lacto-N-tetraose], 5.5%.

As for “Galβ1-4(SO3-6)GlcNAcβ1-3Galβ1-4(SO3-6)GlcNAc [L2L2]”, the “Relative activity (%) Test 2 G6sec2” value on G6sec2 [1] stood at 5.9%. Turning to “Galβ1-4GlcNAcβ1-3Galβ1-4GlcNAcβ1-3Galβ1-4GlcNAcβ1-3Galβ1-4GlcNAc [4LN]”, at G6sec1, the “Relative activity (%) Test 1 G6sec1” value turned out to be 13.2%. Further, at G6sec2 [1], the “Relative activity (%) Test 1 G6sec2” value worked out at 21.5% and the “Relative activity (%) Test 2 G6sec2” value stood at 10.0%.

Consider “Galβ1-4GlcNAcβ1-3Galβ1-4GlcNAcβ-3Galβ1-4GlcNAcβ1-3Galβ1-4GlcNAcβ1-3Galβ1-4GlcNAc [5LN]”, for which the “Relative activity (%) Test 1 G6sec1” value on G6sec1 was 9.3%. Further, on G6sec2 [1], the “Relative activity (%) Test 1 G6sec2” value is 11.5% and the “Relative activity (%) Test 2 G6sec2” value is 12.3%. For the compound lacto-N-fucopentaose III [LNFP-III], at G6sec2 [2], the “Relative activity (%)” value is reported as 4.9%.

In the case of lacto-N-fucopentaose V [LNFP-V], the “Relative activity (%)” value on G6sec2 [2] stood at 4.9%.
